According to patent US9353104B2, “Substituted pyridizinone derivatives as PDE10 inhibitors” (priority 2013, dated 2016):

Target: human PDE10A2 (Homo sapiens (Human), UniProt Q9Y233)
Assay: PDE10 fluorescence polarization (IMAP FP) inhibition assay
Assay type: biochemical
Settings: human PDE10A2 lysate, FAM-labeled cAMP 50 nM, room temperature; read-out: PDE10A Ki
Description: The activity of the compounds in accordance with the present invention as PDE10 inhibitors may be readily determined without undue experimentation using a fluorescence polarization (FP) methodology that is well known in the art (Huang, W., et al., J. Biomol Screen, 2002, 7: 215). […] In a typical experiment the PDE10 inhibitory activity of the compounds of the present invention was determined in accordance with the following experimental method. PDE10A2 was amplified from human fetal brain cDNA (Clontech, Mountain View, Calif.) using a forward primer corresponding to nucleotides 56-77 of human PDE10A2 (Accession No. AF127480, Genbank Identifier 4894716), containing a Kozak consensus sequence, and a reverse primer corresponding to nucleotides 2406-2413 of human PDE10A2 (Accession No. AF127480, Genbank Identifier 4894716). Amplification with Easy-A polymerase (Stratagene, La Jolla, Calif.) was 95° C. for 2 minutes followed by thirty three cycles of 95° C. for 40 seconds, 55° C. for 30 seconds, and 72° C. for 2 minutes 48 seconds. Final extension was 72° C. for 7 minutes. The PCR product was TA cloned into pcDNA3.2-TOPO (Invitrogen, Carlsbad, Calif.) according to standard protocol. AD293 cells with 70-80% confluency were transiently transfected with human PDE10A2/pcDNA3.2-TOPO using Lipofectamine 2000 according to manufacturer specifications (Invitrogen, Carlsbad, Calif.). Cells were harvested 48 hours post-transfection and lysed by sonication (setting 3, 10×5 sec pulses) in a buffer containing 20 mM HEPES, 1 mM EDTA and protease inhibitor cocktail (Roche). Lysate was collected by centrifugation at 75,000×g for 20 minutes. Supernatant containing the cytoplasmic fraction was used for evaluation of PDE10A2 activity. The fluorescence polarization assay for cyclic nucleotide phosphodiesterases was performed using an IMAP® FP kit supplied by Molecular Devices, Sunnyvale, Calif. (product #R8139). IMAP® technology has been applied previously to phosphodiesterase assays (Huang, W., et al., J. Biomol Screen, 2002, 7: 215). Assays were performed at room temperature in 384-well microtiter plates with an incubation volume of 20.2 μL. Solutions of test compounds were prepared in DMSO and serially diluted with DMSO to yield 8 μL of each of 10 solutions differing by 3-fold in concentration, at 32 serial dilutions per plate. 100% inhibition is determined using a known PDE10 inhibitor, which can be any compound that is present at 5,000 times its Ki value in the assay described as follows, such as papaverine (see Siuciak, et al. Neuropharmacology (2006) 51:386-396; Becker, et al. Behav Brain Res (2008) 186(2):155-60; Threlfell, et al., J Pharmacol Exp Ther (2009) 328(3):785-795), 2-{4-[pyridin-4-yl-1-(2,2,2-trifluoroethyl)-1H-pyrazol-3-yl]phenoxymethyl}quinoline succinic acid or 2-[4-(1-methyl-4-pyridin-4-yl-1H-pyrazol-3-yl)-phenoxymethyl]quinoline succinic acid (see Schmidt, et al. J Pharmacol Exp Ther (2008) 325:681-690; Threlfell, et al., J Pharmacol Exp Ther (2009) 328(3): 785-795). 0% of inhibition is determined by using DMSO (1% final concentrations).
A Labcyte Echo 555 (Labcyte, Sunnyvale, Calif.) is used to dispense 200 nL from each well of the titration plate to the 384 well assay plate. A solution of enzyme (1/1600 dilution from aliquots; sufficient to produce 20% substrate conversion) and a separate solution of FAM-labeled cAMP PDE from Molecular Devices (product #R7506), at a final concentration of 50 nM are made in the assay buffer (10 mM Tris HCl, pH 7.2, 10 mM MgCl2, 0.05% NaN3 0.01% Tween-20, and 1 mM DTT). The enzyme and the substrate are then added to the assay plates in two consecutive additions of 10 μL, and then shaken to mix. The reaction is allowed to proceed at room temperature for 30 minutes. A binding solution is then made from the kit components, comprised of 80% Solution A, 20% Solution B and binding reagent at a volume of 1/600 the total binding solution.

Chain of human PDE10A2 (Q9Y233 267-1055): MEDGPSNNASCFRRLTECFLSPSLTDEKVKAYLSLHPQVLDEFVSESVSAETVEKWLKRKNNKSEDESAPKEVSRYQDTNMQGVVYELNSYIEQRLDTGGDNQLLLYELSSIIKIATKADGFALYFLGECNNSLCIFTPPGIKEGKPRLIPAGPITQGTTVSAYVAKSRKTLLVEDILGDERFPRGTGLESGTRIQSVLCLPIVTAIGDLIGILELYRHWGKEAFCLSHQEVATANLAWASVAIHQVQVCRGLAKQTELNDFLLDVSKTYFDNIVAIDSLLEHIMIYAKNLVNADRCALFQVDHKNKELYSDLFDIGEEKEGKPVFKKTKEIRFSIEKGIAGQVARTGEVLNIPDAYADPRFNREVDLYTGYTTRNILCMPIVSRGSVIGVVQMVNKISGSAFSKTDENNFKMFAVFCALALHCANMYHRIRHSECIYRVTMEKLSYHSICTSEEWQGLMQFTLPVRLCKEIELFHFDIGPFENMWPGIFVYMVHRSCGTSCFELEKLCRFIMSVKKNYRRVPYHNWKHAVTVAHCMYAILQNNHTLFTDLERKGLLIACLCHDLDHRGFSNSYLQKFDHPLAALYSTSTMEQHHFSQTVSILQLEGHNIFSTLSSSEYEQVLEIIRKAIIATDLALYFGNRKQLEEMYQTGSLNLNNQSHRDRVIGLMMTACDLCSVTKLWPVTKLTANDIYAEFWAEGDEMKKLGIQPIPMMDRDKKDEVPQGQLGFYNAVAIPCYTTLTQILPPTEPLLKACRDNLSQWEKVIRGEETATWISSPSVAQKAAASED

SMILES	Ki
Cc1cnc(CNc2cc(OC[C@H]3C[C@@H]3c3ccn(C)n3)nn(C)c2=O)s1 [Example 26, 2-methyl-6-(((1S,2S)-2-(1-methyl-1H-pyrazol-3-yl)cyclopropyl)methoxy)-4-((5-methylthiazol-2-yl)methylamino)pyridazin-3(2H)-one]	0.097 nM
Cn1cc(CNc2cc(OC[C@H]3C[C@@H]3c3ccc(Cl)cn3)nn(C)c2=O)cn1 [Example 27, 6-(((1S,2S)-2-(5-chloro-pyridin-2-yl)cyclopropyl)-methoxy)-2-methyl-4-((1-methyl-1H-pyrazol-4-yl)methylamino)pyridazin-3(2H)-one]	0.34 nM
Cc1cc(CNc2cc(OC[C@H]3C[C@@H]3c3ccc(OC(F)F)cn3)nn(C)c2=O)n(C)n1 [Example 28, 6-(((1S,2S)-2-(5-(difluoro-methoxy)pyridin-2-yl)-cyclopropyl)-methoxy)-4-((1,3-dimethyl-1H-pyrazol-5-yl)methyl-amino)-2-methylpyridazin-3(2H)one]	0.046 nM
Cc1ncc(CNc2cc(OC[C@H]3C[C@@H]3c3ccc(OC(F)F)cn3)nn(C)c2=O)s1 [Example 29, 6-(((1S,2S)-2-(5-(difluoromethoxy)pyridin-2-yl)cyclopropyl)-methoxy)-2-methyl-4-((2-methylthiazol-5-yl)methyl-amino)pyridazin-3(2H)one]	0.109 nM
Cn1cc(CNc2cc(OC[C@H]3C[C@@H]3c3ccc(OC(F)F)cn3)nn(C)c2=O)cn1 [Example 30, 6-(((1S,2S)-2-(5-(difluoromethoxy)pyridin-2-yl)cyclopropyl)methoxy)-2-methyl-4-((1-methyl-1H-pyrazol-4-yl)methylamino)pyridazin-3(2H)-one]	0.552 nM
Cc1ccc([C@H]2C[C@@H]2COc2cc(NCc3ncc(C)s3)c(=O)n(C)n2)nc1 [Example 31, 2-methyl-6-(((1S,2S)-2-(5-methylpyridin-2-yl)cyclopropyl)methoxy)-4-((5-methylthiazol-2-yl)methylamino)pyridazin-3(2H)-one]	0.007 nM
Cc1cnc(CNc2cc(OC[C@H]3C[C@@H]3c3ccc(F)cn3)nn(C)c2=O)s1 [Example 32, 6-(((1S,2S)-2-(5-fluoropyridin-2-yl)cyclopropyl)methoxy)-2-methyl-4-((5-methylthiazol-2-yl)methylamino)pyridazin-3(2H)-one]	0.176 nM
Cc1cc(CNc2cc(OC[C@H]3C[C@@H]3c3ccc(Cl)cn3)nn(C)c2=O)n(C)n1 [Example 33, 6-(((1S,2S)-2-(5-chloropyridin-2-yl)cyclopropyl)methoxy)-4-((1,3-dimethyl-1H-pyrazol-5-yl)methylamino)-2-methylpyridazin-3(2H)-one]	0.02 nM
Cc1ncc(CNc2cc(OC[C@H]3C[C@@H]3c3ccc(Cl)cn3)nn(C)c2=O)s1 [Example 34, 6-(((1S,2S)-2-(5-chloropyridin-2-yl)cyclopropyl)methoxy)-2-methyl-4-((2-methylthiazol-5-yl)methylamino)pyridazin-3(2H)-one]	0.064 nM
Cc1ccc([C@H]2C[C@@H]2COc2cc(NCc3c(Cl)c(C)nn3C)c(=O)n(C)n2)nc1 [Example 35, 4-((4-chloro-1,3-dimethyl-1H-pyrazol-5-yl)methylamino)-2-methyl-6-(((1S,2S)-2-(5-methylpyridin-2-yl)cyclopropyl)methoxy)-pyridazin-3(2H)-one]	0.476 nM
Cc1nnc(CN(C)c2cc(OC[C@H]3C[C@@H]3c3ccc4ccccc4n3)nn(C)c2=O)s1 [Example 36, 2-methyl-4-(methyl((5-methyl-1,3,4-thiadiazol-2-yl)methyl)amino)-6-(((1S,2S)-2-(quinolin-2-yl)cyclopropyl)methoxy)-pyridazin-3(2H)-one]	0.911 nM
COc1ccc([C@H]2C[C@@H]2COc2cc(NCc3cn(C)nc3C)c(=O)n(C)n2)nc1 [Example 37, 4-((1,3-dimethyl-1H-pyrazol-4-yl)methyl-amino)-6-(((1S,2S)-2-(5-methoxypyridin-2-yl)cyclopropyl)methoxy)-2-methylpyridazin-3(2H)-one]	0.009 nM
Cc1ccc([C@H]2C[C@@H]2COc2cc(NCc3c(C)nn(C)c3Cl)c(=O)n(C)n2)nc1 [Example 38, 4-((5-chloro-1,3-dimethyl-1H-pyrazol-4-yl)methyl-amino)-2-methyl-6-(((1S,- 2S)-2-(5-methyl-pyridin-2-yl)cyclopropyl)methoxy)-pyridazin-3(2H)-one]	1.53 nM
COc1ccc([C@H]2C[C@@H]2COc2cc(NCc3c(C)nn(C)c3Cl)c(=O)n(C)n2)nc1 [Example 39, 4-((5-chloro-1,3-dimethyl-1H-pyrazol-4-yl)methylamino)-6-(((1S,2S)-2-(5-methoxypyridin-2-yl)cyclopropyl)methoxy)-2-methylpyridazin-3(2H)-one]	1.58 nM
Cc1nn(C)c(Cl)c1CNc1cc(OC[C@H]2C[C@@H]2c2ccn(C)n2)nn(C)c1=O [Example 40]	11.8 nM
Cn1ccc([C@H]2C[C@@H]2COc2cc(NCc3nccs3)c(=O)n(C)n2)n1 [Example 47, 2-methyl-6-(((1S,2S)-2-(1-methyl-1H-pyrazol-3-yl)cyclopropyl)methoxy)-4-((thiazol-2-ylmethyl)amino)pyridazin-3(2H)-one]	8.21 nM
Cc1nc(CNc2cc(OC[C@H]3C[C@@H]3c3ccn(C)n3)nn(C)c2=O)cs1 [Example 48]	> 100 nM
COc1ccc([C@H]2C[C@@H]2COc2cc(NCc3ccc(C)nc3C)c(=O)n(C)n2)nc1 [Example 50, 4-(((2,6-dimethylpyridin-3-yl)methyl)amino)-6-(((1S,2S)-2-(5-methoxypyridin-2-yl)cyclopropyl)methoxy)-2-methylpyridazin-3(2H)-one]	0.003 nM
Cc1ccc(CNc2cc(OC[C@H]3C[C@@H]3c3ccn(C)n3)nn(C)c2=O)c(C)n1 [Example 51, 4-(((2,6-dimethylpyridin-3-yl)methyl)amino)-2-methyl-6-(((1S,2S)-2-(1-methyl-1H-pyrazol-3-yl)cyclopropyl)methoxy)-pyridazin-3(2H)-one]	0.023 nM
Cc1ccc([C@H]2C[C@@H]2COc2cc(NCc3ccc(C)nc3C)c(=O)n(C)n2)nc1 [Example 52, 4-(((2,6-dimethylpyridin-3-yl)methyl)amino)-2-methyl-6-(((1S,2S)-2-(5-methylpyridin-2-yl)cyclopropyl)methoxy)-pyridazin-3(2H)-one]	0.007 nM
Cc1ccc(CNc2cc(OC[C@H]3C[C@@H]3c3ccc(F)cn3)nn(C)c2=O)c(C)n1 [Example 53, 4-(((2,6-dimethylpyridin-3-yl)methyl)amino)-6-(((1S,2S)-2-(5-fluoro-pyridin-2-yl)cyclopropyl-)-methoxy)-2-methyl-pyridazin-3(2H)-one]	0.034 nM
Cc1ccc(CNc2cc(OC[C@H]3C[C@@H]3c3ccc(Cl)cn3)nn(C)c2=O)c(C)n1 [Example 54]	0.019 nM
Cc1ccc(CNc2cc(OC[C@H]3C[C@@H]3c3ccccn3)nn(C)c2=O)c(C)n1 [Example 55, 4-(((2,6-dimethylpyridin-3-yl)methyl)amino)-2-methyl-6-(((1S,2S)-2-(pyridin-2-yl)cyclopropyl-)-methoxy)pyridazin-3(2H)-one]	0.021 nM
Cc1ccc(CNc2cc(OC[C@H]3C[C@@H]3c3ccc4c(n3)CCC4)nn(C)c2=O)c(C)n1 [Example 56, 6-(((1S,2S)-2-(6,7-dihydro-5H-cyclopenta-[b]pyridin-2-yl)cyclo-propyl)methoxy)-4-(((2,6-dimethylpyridin-3-yl)-methyl)amino)-2-methyl-pyridazin-3(2H)-one]	0.002 nM
